Test results as given in patent publication US6924285B2, “Bicyclic heterocyclic compounds, pharmaceutical compositions containing these compounds, their use and process for preparing them” (Boehringer Ingelheim Pharma GmbH & Co., priority 2002, dated 2005).

Tested on: not given
Experiment: not given
Details: not given

| Structure (SMILES) | melting point [°C] |
| --- | --- |
| CN(C)C(=O)CN1CCC(Oc2ccc3ncnc(Nc4ccc(F)c(Cl)c4)c3c2)CC1 [Example 10, 4-[(3-chloro-4-fluoro-phenyl)amino]-6-{1-[(dimethylamino)carbonylmethyl]-piperidin-4-yloxy}-quinazoline] | 233 |
| COc1cc2ncnc(Nc3ccc(F)c(Cl)c3)c2cc1O[C@H]1CCOC1 [Example 1, 4-[(3-chloro-4-fluoro-phenyl)amino]-6-((S)-tetrahydrofuran-3-yloxy)-7-methoxy-quinazoline] | 184 |
| Fc1ccc(Nc2ncnc3cc(OCCCN4CCOCC4)c(OC4CCOCC4)cc23)cc1Cl [Example 7, 4-[(3-chloro-4-fluoro-phenyl)amino]-6-(tetrahydropyran-4-yloxy)-7-[3-(morpholin-4-yl)-propyloxy]-quinazoline] | 205 |
| COc1cc2ncnc(Nc3ccc(F)c(Cl)c3)c2cc1O[C@H]1CC[C@@H](NS(C)(=O)=O)CC1 [Example 3, 4-[(3-chloro-4-fluoro-phenyl)amino]-6-(cis-4-methanesulphonylamino-cyclohexan-1-yloxy)-7-methoxy-quinazoline] | 234 |
| COc1cc2ncnc(Nc3ccc(F)c(Cl)c3)c2cc1OC1CCN(C(=O)N2CCCOCC2)CC1 [Example 12, 4-[(3-chloro-4-fluoro-phenyl)amino]-6-{1-[([1,4]oxazepan-4-yl)carbonyl)-piperidin-4-yloxy}-7-methoxy-quinazoline] | 171 |
| COc1cc2ncnc(Nc3ccc(F)c(Cl)c3)c2cc1O[C@H]1CCNC1.Cl.Cl | 251 |

Biological target: T1, human EGF-receptor kinase (Homo sapiens, UniProt P00533)
T1 construct: GST; made in house; host or cells: Sf9 insect cells (baculovirus)
Experiment: Inhibition of human EGF-receptor kinase (enzyme assay, ELISA read-out)
Format: biochemical
Details: cytoplasmic tyrosine kinase domain as GST fusion protein, substrate pEY/bio-pEY, 30 minutes at ambient temperature
Protocol: The inhibition of human EGF-receptor kinase was determined using the cytoplasmic tyrosine kinase domain (methionine 664 to alanine 1186 based on the sequence published in Nature 309 (1984), 418). For this the protein was expressed in Sf9 insect cells as GST fusion protein using the Baculovirus expression system.
The enzyme activity was measured in the presence or absence of the test compounds in serial dilutions. The polymer pEY (4:1) obtained from SIGMA was used as the substrate. Biotinylated pEY (bio-pEY) was added as the tracer substrate. 100 μl of reaction solution contained 10 μl of the inhibitor in 50% DMSO, 20 μl of the substrate solution (200 mM HEPES pH 7.4, 50 mM magnesium acetate, 2.5 mg/ml poly(EY), 5 μg/ml bio-pEY) and 20 μl of enzyme preparation. The enzyme reaction was started by the addition of 50 μl of a 100 μM ATP solution in 10 mM of magnesium chloride. The dilution of the enzyme preparation was adjusted so that the incorporation of phosphate in the bio-pEY was linear in terms of time and quantity of enzyme. The enzyme preparation was diluted in 20 mM HEPES pH 7.4, 1 mM EDTA, 130 mM common salt, 0.05% Triton X-100, 1 mM DTT and 10% glycerol.
The enzyme assays were carried out at ambient temperature over a period of 30 minutes and ended by the addition of 50 μl of a stopping solution (250 mM EDTA in 20 mM HEPES pH 7.4). 100 μl were placed on a streptavidine-coated microtitre plate and incubated for 60 minutes at ambient temperature. Then the plate was washed with 200 μl of a wash solution (50 mM Tris, 0.05% Tween 20). After the addition of 100 μl of an HRPO-labelled anti-PY antibody (PY20H Anti-PTyr:HRP made by Transduction Laboratories, 250 ng/ml) the preparation was incubated for 60 minutes. Then the microtitre plate was washed three times with 200 μl of wash solution. The samples were then combined with 100 μl of a TMB-peroxidase solution (A:B=1:1, Kirkegaard Perry Laboratories). After 10 minutes the reaction was stopped. The extinction was measured at OD450 nm with an ELISA reader. All the results were measured three times.
The data were adapted by iterative calculation using an analytical pogramme for sigmoidal curves (Graph Pad Prism Version 3.0) with a variable Hill pitch. […] The active substance concentration which inhibits the activity of EGF receptor kinase by 50% (IC50) was derived from the curves.

T1 sequence (P00533 688-1210): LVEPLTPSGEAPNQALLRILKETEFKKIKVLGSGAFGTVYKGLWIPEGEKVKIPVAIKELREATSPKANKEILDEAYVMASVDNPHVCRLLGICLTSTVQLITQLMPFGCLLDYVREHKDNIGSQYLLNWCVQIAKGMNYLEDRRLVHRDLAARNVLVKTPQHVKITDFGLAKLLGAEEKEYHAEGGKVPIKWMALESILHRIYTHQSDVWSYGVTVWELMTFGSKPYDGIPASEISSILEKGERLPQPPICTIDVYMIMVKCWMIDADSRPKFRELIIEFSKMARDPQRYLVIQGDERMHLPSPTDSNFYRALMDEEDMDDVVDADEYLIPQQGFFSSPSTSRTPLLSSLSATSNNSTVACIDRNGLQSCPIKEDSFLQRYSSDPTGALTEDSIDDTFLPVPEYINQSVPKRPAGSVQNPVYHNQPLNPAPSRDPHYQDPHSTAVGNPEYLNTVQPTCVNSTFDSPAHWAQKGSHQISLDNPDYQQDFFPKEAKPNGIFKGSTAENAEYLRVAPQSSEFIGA

| Structure (SMILES) | IC50 [nM] |
| --- | --- |
| COc1cc2ncnc(Nc3ccc(F)c(Cl)c3)c2cc1O[C@H]1CC[C@H](NS(=O)(=O)CCCN2CCOCC2)CC1 [4(1), 4-[(3-chloro-4-fluoro-phenyl)amino]-6-(trans-4-{[3-(morpholin-4-yl)-propyl]sulphonylamino}-cyclohexan-1-yloxy)-7-methoxy-quinazoline] | 0.16 |
| CC(=O)NCCOc1cc2ncnc(Nc3ccc(F)c(Cl)c3)c2cc1OC1CCOCC1 [3(20), 4-[(3-chloro-4-fluoro-phenyl)amino]-6-(tetrahydropyran-4-yloxy)-7-(2-acetylamino-ethoxy)-quinazoline] | 1 |
| COc1cc2ncnc(Nc3ccc(F)c(Cl)c3)c2cc1O[C@H]1CC[C@H](N)CC1 [2(1), 4-[(3-chloro-4-fluoro-phenyl)amino]-6-(trans-4-amino-cyclohexan-1-yloxy)-7-methoxy-quinazoline] | 0.16 |
| COc1cc2ncnc(Nc3ccc(F)c(Cl)c3)c2cc1OC1CCN(S(=O)(=O)N2CCOCC2)CC1 [3(11), 4-[(3-chloro-4-fluoro-phenyl)amino]-6-{1-[(morpholin-4-yl)sulphonyl]-piperidin-4-yloxy}-7-methoxy-quinazoline] | 0.1 |
| COc1cc2ncnc(Nc3ccc(F)c(Cl)c3)c2cc1O[C@H]1CC[C@@H](NC(=O)OC(C)(C)C)CC1 [1(2), 4-[(3-chloro-4-fluoro-phenyl)amino]-6-[cis-4-(tert.-butyloxycarbonylamino)-cyclohexan-1-yloxy]-7-methoxy-quinazoline] | 2 |
| COc1cc2ncnc(Nc3ccc(F)c(Cl)c3)c2cc1O[C@H]1CC[C@H](NS(=O)(=O)N(C)C)CC1 [3(16), 4-[(3-chloro-4-fluoro-phenyl)amino]-6-{trans-4-[(dimethylamino)sulphonylamino]-cyclohexan-1-yloxy}-7-methoxy-quinazoline] | 1 |
| COc1cc2ncnc(Nc3ccc(F)c(Cl)c3)c2cc1OC1CCN(S(C)(=O)=O)CC1 [3(2), 4-[(3-chloro-4-fluoro-phenyl)amino]-6-(1-methanesulphonyl-piperidin-4-yloxy)-7-methoxy-quinazoline] | 0.22 |
| COc1cc2ncnc(Nc3ccc(F)c(Cl)c3)c2cc1O[C@@H]1CCOC1 [1(3), 4-[(3-chloro-4-fluoro-phenyl)amino]-6-((R)-tetrahydrofuran-3-yloxy)-7-methoxy-quinazoline] | 1.1 |
| COc1cc2ncnc(Nc3ccc(F)c(Cl)c3)c2cc1OC1CCN(CCNC(C)=O)CC1 [3(15), 4-[(3-chloro-4-fluoro-phenyl)amino]-6-[1-(2-acetylamino-ethyl)-piperidin-4-yloxy]-7-methoxy-quinazoline] | 1 |
| COc1cc2ncnc(Nc3ccc(F)c(Cl)c3)c2cc1OC1CCOCC1 [1(1), 4-[(3-chloro-4-fluoro-phenyl)amino]-6-(tetrahydropyran-4-yloxy)-7-methoxy-quinazoline] | 0.12 |
| COc1cc2ncnc(Nc3ccc(F)c(Cl)c3)c2cc1OC1CCN(C(=O)OC(C)(C)C)CC1 [1(5), 4-[(3-chloro-4-fluoro-phenyl)amino]-6-[1-(tert.-butyloxycarbonyl)-piperidin-4-yloxy]-7-methoxy-quinazoline] | 0.6 |
| COc1cc2ncnc(Nc3ccc(F)c(Cl)c3)c2cc1OC1CCNCC1 [Example 2(2), 4-[(3-chloro-4-fluoro-phenyl)amino]-6-(piperidin-4-yloxy)-7-methoxy-quinazoline x trifluoroacetic acid] | 0.22 |
| COCC(=O)N1CCC(Oc2cc3c(Nc4ccc(F)c(Cl)c4)ncnc3cc2OC)CC1 [3(8), 4-[(3-chloro-4-fluoro-phenyl)amino]-6-{1-[(methoxymethyl)carbonyl]-piperidin-4-yloxy}-7-methoxy-quinazoline] | 0.6 |
| COc1cc2ncnc(Nc3ccc(F)c(Cl)c3)c2cc1OC1CCN(C(=O)N2CCOCC2)CC1 [3(7), 4-[(3-chloro-4-fluoro-phenyl)amino]-6-{1-[(morpholin-4-yl)carbonyl]-piperidin-4-yloxy}-7-methoxy-quinazoline] | 0.7 |
| COc1cc2ncnc(Nc3ccc(F)c(Cl)c3)c2cc1O[C@H]1CC[C@@H](NS(C)(=O)=O)CC1 [Example 3, 4-[(3-chloro-4-fluoro-phenyl)amino]-6-(cis-4-methanesulphonylamino-cyclohexan-1-yloxy)-7-methoxy-quinazoline] | 0.9 |
| COc1cc2ncnc(Nc3ccc(F)c(Cl)c3)c2cc1O[C@H]1CC[C@H](NC(=O)OC(C)(C)C)CC1 [1(4), 4-[(3-chloro-4-fluoro-phenyl)amino]-6-[trans-4-(tert.-butyloxycarbonylamino)-cyclohexan-1-yloxy]-7-methoxy-quinazoline] | 0.6 |
| COc1cc2ncnc(Nc3ccc(F)c(Cl)c3)c2cc1O[C@H]1CC[C@H](NS(=O)(=O)N2CCOCC2)CC1 [3(18), 4-[(3-chloro-4-fluoro-phenyl)amino]-6-{trans-4-[(morpholin-4-yl)sulphonylamino]-cyclohexan-1-yloxy}-7-methoxy-quinazoline] | 0.4 |
| COCCOc1cc2ncnc(Nc3ccc(F)c(Cl)c3)c2cc1OC1CCOCC1 [7(5), 4-[(3-chloro-4-fluoro-phenyl)amino]-6-(tetrahydropyran-4-yloxy)-7-(2-methoxy-ethoxy)-quinazoline] | 1 |
| COc1cc2ncnc(Nc3ccc(F)c(Cl)c3)c2cc1O[C@H]1CC[C@H](NC(=O)N2CCOCC2)CC1 [3(17), 4-[(3-chloro-4-fluoro-phenyl)amino]-6-{trans-4-[(morpholin-4-yl)carbonylamino]-cyclohexan-1-yloxy}-7-methoxy-quinazoline] | 0.3 |
| COc1cc2ncnc(Nc3ccc(F)c(Cl)c3)c2cc1O[C@H]1CC[C@@H](NS(=O)(=O)CCCN2CCOCC2)CC1 [Example 4, 4-[(3-chloro-4-fluoro-phenyl)amino]-6-(cis-4-{[3-(morpholin-4-yl)-propyl]sulphonylamino}-cyclohexan-1-yloxy)-7-methoxy-quinazoline] | 0.41 |
| COc1cc2ncnc(Nc3ccc(F)c(Cl)c3)c2cc1OC1CCCOC1 (stereo not drawn) [1(6), 4-[(3-chloro-4-fluoro-phenyl)amino]-6-(tetrahydropyran-3-yloxy)-7-methoxy-quinazoline] | 0.69 |
| CS(=O)(=O)NCCOc1cc2ncnc(Nc3ccc(F)c(Cl)c3)c2cc1OC1CCOCC1 [3(21), 4-[(3-chloro-4-fluoro-phenyl)amino]-6-(tetrahydropyran-4-yloxy)-7-(2-methanesulphonylamino-ethoxy)-quinazoline] | 0.4 |
| COc1cc2ncnc(Nc3ccc(F)c(Cl)c3)c2cc1O[C@H]1CC[C@H](NS(C)(=O)=O)CC1 [3(1), 4-[(3-chloro-4-fluoro-phenyl)amino]-6-(trans-4-methanesulphonylamino-cyclohexan-1-yloxy)-7-methoxy-quinazoline] | 0.14 |
| COc1cc2ncnc(Nc3ccc(F)c(Cl)c3)c2cc1OC1CCN(C#N)CC1 [3(9), 4-[(3-chloro-4-fluoro-phenyl)amino]-6-(1-cyano-piperidin-4-yloxy)-7-methoxy-quinazoline] | 0.2 |
